Assay results taken from patent publication US20190359756A1, “OPTICAL MEMBER FORMING COMPOSITION” (Mitsubishi Gas Chemical Company, Inc., priority 2016, published 2019).

Tests used:
Assay type in all cases: physicochemical
Film heat resistance = assay: Film heat resistance; design: key: A: No defect in the film was visually observed.; C: Defects in the film were visually observed (including disappearance of the film); details: film baked at 110° C. for 5 minutes, visual observation
Experimental: (§1) The compound was dissolved at 5% by mass in propylene glycol methyl ether to prepare an optical member forming material. Next, a silicon substrate was spin coated with the optical member forming material, and then baked at 110° C. for 60 seconds to form an optical member forming film with a film thickness of 1000 nm.
The optical member forming film obtained as described above was baked at 110° C. for 5 minutes, and evaluation of film heat resistance was carried out according to the following criteria.
A: No defect in the film was visually observed.
C: Defects in the film were visually observed (including disappearance of the film).

[1] = Refractive index of optical member forming film (spectroscopic ellipsometer); details: wavelength 633 nm, film thickness 1000 nm, baked at 110° C. for 60 seconds
Experimental: as §1
(§2) Subsequently, the refractive index and transparency tests at a wavelength of 633 nm were conducted using a vacuum ultraviolet variable angle spectroscopic ellipsometer (VUV-VASE) manufactured by J. A. Woollam Co., Inc. The refractive index and the transparency were evaluated according to the following criteria.
A: The refractive index was 1.65 or more.
C: The refractive index was less than 1.65.

[2] = Transparency (absorption constant) of optical member forming film; details: wavelength 633 nm, film thickness 1000 nm, baked at 110° C. for 60 seconds
Experimental: as §1, §2
A: The absorption constant was less than 0.03.
B: The absorption constant was 0.03 or more and less than 0.05.
C: The absorption constant was 0.05 or more.

[3] = Solubility test in propylene glycol monomethyl ether acetate; details: 23° C., ultrasonic waves 30 minutes, amount of complete dissolution
Experimental: The solubility was evaluated by precisely weighing the compound into a test tube, adding propylene glycol monomethyl ether acetate at 23° C. so as to attain a predetermined concentration, applying ultrasonic waves for 30 minutes in an ultrasonic cleaner, then visually observing the subsequent state of the fluid, determining the concentration of the amount of complete dissolution, and conducting evaluation according to the following criteria.
A: 5.0% by mass Amount of dissolution
B: 3.0% by mass Amount of dissolution <5.0% by mass
C: Amount of dissolution <3.0% by mass

SMILES | Film heat resistance (Film heat resistance) | Refractive index [1] | Absorption constant [2] | Solubility [3]
Oc1ccc(C2c3c(ccc4cc(O)ccc34)Oc3ccc4cc(O)ccc4c32)cc1 [XBisN-4] | A | A (The refractive index was 1.65 or more.) | A (The absorption constant was less than 0.03.) | A (5.0% by mass Amount of dissolution)
CC(C)Cc1ccc(C2c3c(ccc4cc(O)ccc34)Oc3ccc4cc(O)ccc4c32)cc1 [XBisN 2] | A | A (The refractive index was 1.65 or more.) | A (The absorption constant was less than 0.03.) | A (5.0% by mass Amount of dissolution)
Oc1ccc(C(c2ccccc2)c2ccc(O)cc2O)c(O)c1 [Example P-6] | A | A (The refractive index was 1.65 or more.) | A (The absorption constant was less than 0.03.) | A (5.0% by mass Amount of dissolution)
CCCc1ccc(C2c3c(ccc4cc(O)ccc34)Oc3ccc4cc(O)ccc4c32)cc1 [XBisN-3] | A | A (The refractive index was 1.65 or more.) | A (The absorption constant was less than 0.03.) | A (5.0% by mass Amount of dissolution)
Oc1ccc2c3c(ccc2c1)Oc1ccc2cc(O)ccc2c1C3c1ccc(C2CCCCC2)cc1 [XBisN-5] | A | A (The refractive index was 1.65 or more.) | A (The absorption constant was less than 0.03.) | A (5.0% by mass Amount of dissolution)
Oc1ccc(C2c3c(ccc4ccc(O)cc34)Oc3ccc4ccc(O)cc4c32)cc1 [XBisN-8] | A | A (The refractive index was 1.65 or more.) | A (The absorption constant was less than 0.03.) | A (5.0% by mass Amount of dissolution)
Oc1ccc2c3c(ccc2c1)Oc1ccc2cc(O)ccc2c1C3c1ccc(-c2ccccc2)cc1 [XiN-1] | A | A (The refractive index was 1.65 or more.) | A (The absorption constant was less than 0.03.) | A (5.0% by mass Amount of dissolution)
CCCc1ccc(C2c3c(ccc4ccc(O)cc34)Oc3ccc4ccc(O)cc4c32)cc1 [XBisN-7] | A | A (The refractive index was 1.65 or more.) | A (The absorption constant was less than 0.03.) | A (5.0% by mass Amount of dissolution)
Oc1ccc(C(c2ccc(-c3ccccc3)cc2)c2ccc(O)cc2O)c(O)c1 [Example P-5] | A | A (The refractive index was 1.65 or more.) | A (The absorption constant was less than 0.03.) | A (5.0% by mass Amount of dissolution)
Oc1ccc(C(c2ccc(-c3ccccc3)cc2)c2ccc(O)c(-c3ccccc3)c2)cc1-c1ccccc1 [BiP-1] | A | A (The refractive index was 1.65 or more.) | A (The absorption constant was less than 0.03.) | A (5.0% by mass Amount of dissolution)
CC(C)Cc1ccc(C2c3c(ccc4ccc(O)cc34)Oc3ccc4ccc(O)cc4c32)cc1 [XBisN-6] | A | A (The refractive index was 1.65 or more.) | A (The absorption constant was less than 0.03.) | A (5.0% by mass Amount of dissolution)
Oc1ccc2c3c(ccc2c1)Oc1ccc2cc(O)ccc2c1C3c1ccc(-c2ccc(C3c4c(ccc5cc(O)ccc45)Oc4ccc5cc(O)ccc5c43)cc2)cc1 [XiN-3] | A | A (The refractive index was 1.65 or more.) | A (The absorption constant was less than 0.03.) | A (5.0% by mass Amount of dissolution)
Oc1ccc(-c2ccc(O)c(C(c3ccc(-c4ccccc4)cc3)c3cc(-c4ccc(O)cc4)ccc3O)c2)cc1 [BiP-2] | A | A (The refractive index was 1.65 or more.) | A (The absorption constant was less than 0.03.) | A (5.0% by mass Amount of dissolution)
Oc1ccc(C(c2ccc(C3CCCCC3)cc2)c2ccc(O)cc2O)c(O)c1 [Example P-7] | A | A (The refractive index was 1.65 or more.) | A (The absorption constant was less than 0.03.) | A (5.0% by mass Amount of dissolution)
Oc1ccc2ccc3c(c2c1)C(c1ccc(-c2ccc(C4c5c(ccc6ccc(O)cc56)Oc5ccc6ccc(O)cc6c54)cc2)cc1)c1c(ccc2ccc(O)cc12)O3 [XBiN 3] | A | A (The refractive index was 1.65 or more.) | A (The absorption constant was less than 0.03.) | A (5.0% by mass Amount of dissolution)
Oc1ccc2ccc3c(c2c1)C(c1ccc(C2CCCCC2)cc1)c1c(ccc2ccc(O)cc12)O3 [XBisN-9] | A | A (The refractive index was 1.65 or more.) | A (The absorption constant was less than 0.03.) | A (5.0% by mass Amount of dissolution)
